Reference: PubChem BioAssay AID1648 (Sanford-Burnham Center for Chemical Genomics, 2009)
Calls of active or inactive are those of the source. The rule behind the calls is not given here.

What follows are compounds tested against Serine/threonine-protein kinase mTOR (Homo sapiens) (UniProt P42345) (assay: binders of mTOR FRB domain, biophysical, NMR (AID 1648)). Conditions: NMR binding to FRB domain, chemical shift.
Chain of Serine/threonine-protein kinase mTOR (Homo sapiens) (P42345 2015-2114): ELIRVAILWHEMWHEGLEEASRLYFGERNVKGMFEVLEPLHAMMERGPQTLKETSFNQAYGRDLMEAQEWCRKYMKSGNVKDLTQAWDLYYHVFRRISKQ
CC1CC[C@@]2(OC1)O[C@H]1CC3C4CC[C@@H]5C[C@@H](O)CC[C@]5(C)C4CC[C@]3(C)[C@H]1[C@@H]2C (some centres not stated) was tested, and the Kd was > 4 mM (inactive). Cc1nc2nc(Cc3ccccc3)[nH]n2c(=O)c1Cl was tested, and the Kd was > 4 mM (inactive). For CN(C)C1CCS(=O)(=O)C1 (configuration not stated), the Kd was > 4 mM (inactive). In the case of c1ccc(CCN2CCN(CCc3ccccn3)CC2)nc1, the Kd is reported as > 4 mM (inactive). For CC(=O)NC(=S)Nc1nc2ccccc2n1C(C)=O, the Kd was > 4 mM (inactive). In the case of Cc1noc(C)c1C(=O)N1CCN(c2ncccn2)CC1, the Kd is reported as > 4 mM (inactive). With O=C(Nc1cccnc1)c1cnn2cccnc12 the Kd was > 4 mM (inactive). For CCOC(=O)c1c(C)nc2ccccn12, the Kd was > 4 mM (inactive). With Cc1c(N=CN(C)C)c(=O)n(-c2ccccc2)n1C the Kd was > 4 mM (inactive). For COc1ccc(CC(=O)c2ccc(O)cc2O)cc1, the Kd was > 4 mM (inactive). For Cc1nn2c(=O)c(NC(=O)c3ccccc3)cnc2s1, the Kd was > 4 mM (inactive). For Cc1n[nH]c(C)c1-c1ccccc1C(=O)O, the Kd was > 4 mM (inactive). COc1ccc2cc1Oc1ccc(cc1)C[C@H]1c3cc(c(OC)cc3CCN1C)Oc1c(OC)c(OC)cc3c1[C@H](C2)N(C)CC3 was tested, and the Kd was > 4 mM (inactive). For O=C(O)CCCCCCCCCCCCC1C=CCC1 (configuration not stated), the Kd was > 4 mM (inactive). For O=c1c(Cl)c(NCCO)ncn1-c1ccccc1, the Kd was > 4 mM (inactive). In the case of Cn1nnc2cc(CO)ccc21, the Kd is reported as > 4 mM (inactive). With CC(=O)Nc1ccc2c(c1)C(=O)N(C1CCCCC1)C2=O the Kd was > 4 mM (inactive). With O=C1CCC(=O)N1c1cccnc1 the Kd was > 4 mM (inactive). O=C(Nn1cnnc1)c1csc2ccccc12 was tested, and the Kd was > 4 mM (inactive). CC(C)NC(=O)c1cc(-n2cnnc2)ccc1Cl was tested, and the Kd was > 4 mM (inactive). In the case of COc1cc(-c2nnc(NC(C)=O)o2)cc(OC)c1OC, the Kd is reported as > 4 mM (inactive). O=C(c1ccccc1)c1ccc(N2CCNCC2)cc1 was tested, and the Kd was > 4 mM (inactive). C[C@@H](N)[C@@H](O)c1ccccc1 was tested, and the Kd was > 4 mM (inactive). CN(C)CCNC(CC(=O)Nc1ccccc1)C(=O)O (configuration not stated) was tested, and the Kd was > 4 mM (inactive). In the case of Cn1nnc2cc(C(=O)O)ccc21, the Kd is reported as > 4 mM (inactive). In the case of CCN1CCC(NC2CCC(O)CC2)CC1 (configuration not stated), the Kd is reported as > 4 mM (inactive). In the case of CC1=C2[C@H]3OC(=O)[C@@H](C)[C@@H]3CC[C@@]2(C)C=CC1=O, the Kd is reported as > 4 mM (inactive). With COC1=CC(C)[C@@H]2C[C@H]3OC(=O)C[C@H]4C(C)=C(OC)C(=O)C([C@@]34C)[C@@]2(C)C1=O (some centres not stated) the Kd was > 4 mM (inactive). CN1CCN(CC(=O)Nc2ccccc2)CC1 was tested, and the Kd was > 4 mM (inactive). In the case of O=C(Nc1ccc2c(c1)OCO2)c1ccc(=O)[nH]n1, the Kd is reported as > 4 mM (inactive). In the case of C=C1CCC2C(CC2(C)C)C(=O)CCC1O (configuration not stated), the Kd is reported as > 4 mM (inactive). In the case of COc1cc2c(cc1-c1coc3c4c(c(OC)cc3c1=O)OC(C)(C)C=C4)OCO2, the Kd is reported as > 4 mM (inactive). For c1ccc(-c2nsc(N3CCCNCC3)n2)cc1, the Kd was > 4 mM (inactive). With Cc1nc(CC(=O)O)c(-c2ccccc2)s1 the Kd was > 4 mM (inactive). For COc1ccc([C@@H]2CC(=O)c3c(O)cc(O[C@@H]4O[C@H](CO[C@H]5O[C@@H](C)[C@H](O)[C@@H](O)[C@H]5O)[C@@H](O)[C@H](O)[C@H]4O)cc3O2)cc1O, the Kd was > 4 mM (inactive). With CCn1ccc(C(=O)Nc2nccs2)n1 the Kd was > 4 mM (inactive). In the case of Cn1c(SCC(N)=O)nnc1-c1c[nH]c2ccccc12, the Kd is reported as > 4 mM (inactive). With O=c1[nH]c2ccccc2c(=O)n1CCCO the Kd was > 4 mM (inactive). With O=c1/c(=C\c2cccnc2)sc2nc3ccccc3n12 the Kd was > 4 mM (inactive). With O=C(NCC1CCNCC1)c1ccccn1 the Kd was > 4 mM (inactive). With COc1ccc2[nH]cc(CN(C)C)c2c1 the Kd was > 4 mM (inactive). With CC(C)c1c(O)ccc2c1CCC1[C@@](C)(CO)CCC[C@]21C (some centres not stated) the Kd was > 4 mM (inactive). In the case of CC(=O)n1c(N)nc2ccccc21, the Kd is reported as > 4 mM (inactive). In the case of Cc1nn(C)c(Cl)c1C(O)c1c(C)nn(C)c1Cl, the Kd is reported as > 4 mM (inactive). For c1cncc(Nc2nc(-c3cccnc3)cs2)c1, the Kd was > 4 mM (inactive). With CC(=O)Nn1cc2c(=O)n(C)c(=O)n(C)c2c1 the Kd was > 4 mM (inactive). For Cc1cccc(-n2c(N)cc(=O)[nH]c2=S)c1, the Kd was > 4 mM (inactive). For NC(=O)C1CCN(c2ncnc(N)c2[N+](=O)[O-])CC1, the Kd was > 4 mM (inactive). With COc1cc2ccc(=O)oc2c(OC)c1OC the Kd was > 4 mM (inactive). For Cn1cnc2c(=S)[nH]c(=O)n(Cc3ccccc3)c21, the Kd was > 4 mM (inactive). CSc1nnc(CN2CCSCC2)n1C was tested, and the Kd was > 4 mM (inactive). In the case of Cc1ccc(N2C(=O)CC(=O)NC2=O)cc1, the Kd is reported as > 4 mM (inactive). In the case of CC(=O)c1ccc[nH]1, the Kd is reported as > 4 mM (inactive). In the case of Nc1nonc1-c1nc2ccccc2[nH]1, the Kd is reported as > 4 mM (inactive). In the case of COc1cc(O)c2c(c1)C(=O)c1cc(C)cc(O)c1C2=O, the Kd is reported as > 4 mM (inactive). In the case of c1ccc2c(c1)ncn2CCn1cnc2ccccc21, the Kd is reported as > 4 mM (inactive). OCCN1CCN(C(=S)c2ccc(Cl)cc2)CC1 was tested, and the Kd was > 4 mM (inactive).
